According to US9321776B2, “Isochromene derivatives as phoshoinositide 3-kinases inhibitors” (CHIESI FARMACEUTICI S.p.A., priority 2013, dated 2016):
Structures can show the parent of a compound that is named as a salt.

Legend:
Assay in all cases: PI3K enzyme inhibitory activity in the cell free assay (ADP-Glo Kinase Assay)
Assay type in all cases: biochemical
PI3Kα = molecular target: T1, PI3Kα (Homo sapiens, UniProt P42336); settings: human recombinant PI3Kα, ATP 50 μM; read-out: PI3K alpha inhibition
T1 construct: purchased Millipore Ltd (Billerica, Mass.)

PI3Kβ = molecular target: T2, PI3Kβ (Homo sapiens, UniProt P42338); settings: human recombinant PI3Kβ, ATP 100 μM; read-out: PI3K beta inhibition
T2 construct: purchased Millipore Ltd (Billerica, Mass.)

PI3Kδ = molecular target: T3, PI3Kδ (Homo sapiens, UniProt O00329); settings: human recombinant PI3Kδ, ATP 80 μM; read-out: PI3K delta inhibition
T3 construct: purchased Millipore Ltd (Billerica, Mass.)
T3 sequence (O00329 1-1044): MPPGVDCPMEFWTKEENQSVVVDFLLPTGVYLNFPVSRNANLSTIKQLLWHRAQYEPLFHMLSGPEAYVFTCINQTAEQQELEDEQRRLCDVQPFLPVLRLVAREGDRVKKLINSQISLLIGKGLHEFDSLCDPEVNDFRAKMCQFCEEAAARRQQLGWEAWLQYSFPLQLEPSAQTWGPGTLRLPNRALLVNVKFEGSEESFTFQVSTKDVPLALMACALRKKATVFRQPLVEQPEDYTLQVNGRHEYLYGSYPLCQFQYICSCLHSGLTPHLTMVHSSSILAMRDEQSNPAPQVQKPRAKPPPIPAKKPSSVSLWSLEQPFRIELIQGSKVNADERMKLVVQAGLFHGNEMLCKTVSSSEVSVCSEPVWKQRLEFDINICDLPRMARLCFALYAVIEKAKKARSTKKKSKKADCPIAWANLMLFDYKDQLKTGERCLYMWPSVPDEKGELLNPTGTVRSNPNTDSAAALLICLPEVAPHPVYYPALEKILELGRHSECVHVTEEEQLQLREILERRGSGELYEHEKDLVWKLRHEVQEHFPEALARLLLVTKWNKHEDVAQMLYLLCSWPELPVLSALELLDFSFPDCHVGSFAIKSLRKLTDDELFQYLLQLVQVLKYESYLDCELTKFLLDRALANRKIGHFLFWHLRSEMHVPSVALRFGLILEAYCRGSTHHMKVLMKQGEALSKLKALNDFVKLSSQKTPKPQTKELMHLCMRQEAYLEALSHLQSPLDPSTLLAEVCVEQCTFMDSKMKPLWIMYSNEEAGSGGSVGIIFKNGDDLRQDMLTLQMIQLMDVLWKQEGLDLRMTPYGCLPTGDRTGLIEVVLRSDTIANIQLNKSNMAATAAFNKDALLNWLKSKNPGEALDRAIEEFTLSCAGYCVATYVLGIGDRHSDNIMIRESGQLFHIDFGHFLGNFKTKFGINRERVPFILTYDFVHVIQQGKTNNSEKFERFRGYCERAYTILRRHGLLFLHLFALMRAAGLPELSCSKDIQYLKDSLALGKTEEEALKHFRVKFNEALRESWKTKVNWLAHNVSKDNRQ

PI3Kγ = molecular target: T4, PI3Kγ (Homo sapiens, UniProt P48736); settings: human recombinant PI3Kγ, ATP 30 μM; read-out: PI3K gamma inhibition
T4 construct: purchased Millipore Ltd (Billerica, Mass.)
T4 sequence (P48736 whole entry): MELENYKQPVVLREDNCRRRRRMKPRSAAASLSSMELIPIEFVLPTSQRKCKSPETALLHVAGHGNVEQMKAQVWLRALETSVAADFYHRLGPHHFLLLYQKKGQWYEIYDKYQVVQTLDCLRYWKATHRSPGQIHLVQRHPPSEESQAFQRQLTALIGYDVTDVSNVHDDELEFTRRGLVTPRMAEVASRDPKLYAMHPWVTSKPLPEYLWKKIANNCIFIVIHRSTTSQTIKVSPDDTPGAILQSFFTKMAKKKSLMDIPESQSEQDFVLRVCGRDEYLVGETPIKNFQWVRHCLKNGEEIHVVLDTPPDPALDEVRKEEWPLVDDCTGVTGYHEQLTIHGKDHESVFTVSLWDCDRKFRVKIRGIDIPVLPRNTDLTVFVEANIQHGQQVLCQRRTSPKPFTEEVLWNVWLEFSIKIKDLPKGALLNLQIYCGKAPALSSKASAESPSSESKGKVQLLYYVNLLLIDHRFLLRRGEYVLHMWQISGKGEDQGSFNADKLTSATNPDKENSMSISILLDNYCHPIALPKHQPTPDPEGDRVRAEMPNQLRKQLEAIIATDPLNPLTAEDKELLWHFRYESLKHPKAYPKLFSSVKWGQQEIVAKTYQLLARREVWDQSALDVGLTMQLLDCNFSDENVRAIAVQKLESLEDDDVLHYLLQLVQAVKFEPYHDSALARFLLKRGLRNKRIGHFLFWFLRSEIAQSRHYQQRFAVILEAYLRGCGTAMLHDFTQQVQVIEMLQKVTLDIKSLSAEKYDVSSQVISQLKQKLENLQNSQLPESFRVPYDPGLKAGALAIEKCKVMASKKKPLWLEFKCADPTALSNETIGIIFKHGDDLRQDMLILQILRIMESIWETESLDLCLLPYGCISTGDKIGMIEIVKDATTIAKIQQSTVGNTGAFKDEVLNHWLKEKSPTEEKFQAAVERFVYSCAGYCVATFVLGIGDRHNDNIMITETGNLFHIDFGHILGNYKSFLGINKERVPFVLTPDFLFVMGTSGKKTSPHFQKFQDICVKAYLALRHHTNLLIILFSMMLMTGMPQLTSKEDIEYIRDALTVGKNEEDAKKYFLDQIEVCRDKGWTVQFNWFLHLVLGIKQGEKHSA

T1 sequence (P42336 whole entry): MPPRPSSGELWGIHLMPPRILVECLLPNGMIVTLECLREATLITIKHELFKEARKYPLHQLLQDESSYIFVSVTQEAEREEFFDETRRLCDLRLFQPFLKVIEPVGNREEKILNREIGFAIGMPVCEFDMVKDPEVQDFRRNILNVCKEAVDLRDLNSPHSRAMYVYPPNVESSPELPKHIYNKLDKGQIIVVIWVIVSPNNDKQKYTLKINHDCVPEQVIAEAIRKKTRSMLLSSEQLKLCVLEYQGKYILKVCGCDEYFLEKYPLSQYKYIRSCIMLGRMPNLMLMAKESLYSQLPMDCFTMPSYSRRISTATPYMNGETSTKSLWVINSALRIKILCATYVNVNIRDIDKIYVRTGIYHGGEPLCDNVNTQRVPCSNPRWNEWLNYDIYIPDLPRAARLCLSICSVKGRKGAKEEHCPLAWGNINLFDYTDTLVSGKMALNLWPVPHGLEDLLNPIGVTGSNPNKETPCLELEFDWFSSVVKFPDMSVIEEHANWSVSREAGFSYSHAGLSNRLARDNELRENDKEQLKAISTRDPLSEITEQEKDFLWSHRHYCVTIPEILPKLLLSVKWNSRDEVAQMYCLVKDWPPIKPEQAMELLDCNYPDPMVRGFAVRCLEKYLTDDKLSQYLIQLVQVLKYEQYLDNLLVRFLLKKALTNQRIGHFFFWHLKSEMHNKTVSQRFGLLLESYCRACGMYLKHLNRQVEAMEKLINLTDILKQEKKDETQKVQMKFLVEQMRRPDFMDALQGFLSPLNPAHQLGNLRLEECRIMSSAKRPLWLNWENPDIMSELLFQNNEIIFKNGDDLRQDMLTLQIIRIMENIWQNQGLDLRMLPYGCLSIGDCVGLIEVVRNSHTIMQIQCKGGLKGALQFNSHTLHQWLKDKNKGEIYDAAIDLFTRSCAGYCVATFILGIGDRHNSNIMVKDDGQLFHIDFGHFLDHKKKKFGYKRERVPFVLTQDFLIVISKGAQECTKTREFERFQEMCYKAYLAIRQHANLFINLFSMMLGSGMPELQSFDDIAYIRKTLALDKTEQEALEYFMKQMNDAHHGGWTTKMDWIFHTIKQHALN
T2 sequence (P42338 whole entry): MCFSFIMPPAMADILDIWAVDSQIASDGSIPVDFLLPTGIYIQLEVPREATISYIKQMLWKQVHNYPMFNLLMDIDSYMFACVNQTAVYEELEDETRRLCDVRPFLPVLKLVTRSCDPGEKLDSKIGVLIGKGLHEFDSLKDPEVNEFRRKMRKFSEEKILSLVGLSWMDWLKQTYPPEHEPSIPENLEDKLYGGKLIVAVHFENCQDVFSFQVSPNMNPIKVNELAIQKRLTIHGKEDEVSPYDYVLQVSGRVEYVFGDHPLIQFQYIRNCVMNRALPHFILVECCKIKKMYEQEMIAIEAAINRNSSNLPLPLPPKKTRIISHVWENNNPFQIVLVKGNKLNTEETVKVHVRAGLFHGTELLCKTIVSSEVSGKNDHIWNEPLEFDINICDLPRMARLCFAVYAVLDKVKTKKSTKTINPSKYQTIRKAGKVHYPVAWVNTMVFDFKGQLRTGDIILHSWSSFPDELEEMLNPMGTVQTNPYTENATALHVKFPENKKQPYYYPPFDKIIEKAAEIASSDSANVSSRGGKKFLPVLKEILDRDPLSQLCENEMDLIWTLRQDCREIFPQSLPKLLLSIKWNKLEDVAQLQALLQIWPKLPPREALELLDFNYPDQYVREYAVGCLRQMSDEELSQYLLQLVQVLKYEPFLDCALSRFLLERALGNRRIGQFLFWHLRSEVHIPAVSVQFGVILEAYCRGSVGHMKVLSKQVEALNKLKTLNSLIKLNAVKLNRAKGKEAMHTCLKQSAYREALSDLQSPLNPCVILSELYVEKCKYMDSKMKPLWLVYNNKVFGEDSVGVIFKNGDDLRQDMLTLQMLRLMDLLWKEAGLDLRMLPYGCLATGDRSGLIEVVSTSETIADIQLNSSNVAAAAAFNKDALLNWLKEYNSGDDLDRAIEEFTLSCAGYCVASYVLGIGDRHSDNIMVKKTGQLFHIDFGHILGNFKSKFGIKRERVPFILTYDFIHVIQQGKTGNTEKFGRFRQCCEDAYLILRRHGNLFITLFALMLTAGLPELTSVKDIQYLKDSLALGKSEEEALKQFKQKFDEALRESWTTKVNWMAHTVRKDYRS

| Compound | IC50 (PI3Kα) [nM] | IC50 (PI3Kβ) [nM] | IC50 (PI3Kδ) [nM] | IC50 (PI3Kγ) [nM] |
| --- | --- | --- | --- | --- |
| CC(c1oc(=O)c2ccccc2c1C1=CCCN(C)C1)n1nc(-c2cc(O)cc(F)c2)c2c(N)ncnc21 (stereo not shown) [Example 63, 3-(1-(4-amino-3-(3-fluoro-5-hydroxyphenyl)-1H-pyrazolo[3,4-d]pyrimidin-1-yl)ethyl)-4-(1-methyl-1,2,5,6-tetrahydropyridin-3-yl)-1H-isochromen-1-one hydrochloride] | 10 to 1000 | 10 to 1000 | < 10 | 10 to 1000 |
| CC(c1oc(=O)c2ccccc2c1-c1ccc(CN2CCN(CCO)CC2)s1)n1nc(-c2cc(O)cc(F)c2)c2c(N)ncnc21 (single isomer, unassigned) [Example 76b, 3-(1-(4-amino-3-(3-fluoro-5-hydroxyphenyl)-1H-pyrazolo[3,4-d]pyrimidin-1-yl)ethyl)-4-(5-((4-(2-hydroxyethyl)piperazin-1-yl)methyl)thiophen-2-yl)-1H-isochromen-1-one hydrochloride] | 10 to 1000 | 10 to 1000 | < 10 | 10 to 1000 |
| CC(Nc1ncnc2[nH]cnc12)c1oc(=O)c2ccccc2c1-c1cncs1 (stereo not shown) [Example 117, 3-(1-(9H-purin-6-ylamino)ethyl)-4-(thiazol-5-yl)-1H-isochromen-1-one] | 10 to 1000 | > 1000 | < 10 | 10 to 1000 |
| Cc1cccc(-c2c(C(C)n3nc(-c4cc(O)cc(F)c4)c4c(N)ncnc43)oc(=O)c3ccccc23)c1 (stereo not shown) [Example 41, 3-(1-(4-Amino-3-(3-fluoro-5-hydroxyphenyl)-1H-pyrazolo[3,4-d]pyrimidin-1-yl)ethyl)-4-m-tolyl-1H-isochromen-1-one] | 10 to 1000 | 10 to 1000 | < 10 | 10 to 1000 |
| CC(Nc1ncnc2[nH]cnc12)c1oc(=O)c2ccccc2c1C1=CCN(C)CC1 (stereo not shown) [Example 45, 3-(1-(9H-purin-6-ylamino)ethyl)-4-(1-methyl-1,2,3,6-tetrahydropyridin-4-yl)-1H-isochromen-1-one hydrochloride] | > 1000 | > 1000 | < 10 | > 1000 |
| CC(Nc1ncnc2[nH]cnc12)c1oc(=O)c2ccccc2c1-c1cnc(N)nc1 (stereo not shown) [Example 124, 3-(1-(9H-purin-6-ylamino)ethyl)-4-(2-aminopyrimidin-5-yl)-1H-isochromen-1-one] | > 1000 | > 1000 | 10 to 1000 | > 1000 |
| CC(Nc1ncnc2[nH]cnc12)c1oc(=O)c2ccccc2c1-c1ccc(CN2CCOCC2)cc1 (stereo not shown) [Example 47, 3-(1-(9H-purin-6-ylamino)ethyl)-4-(4-(morpholinomethyl)phenyl)-1H-isochromen-1-one hydrochloride] | > 1000 | > 1000 | 10 to 1000 | 10 to 1000 |
| CC(c1oc(=O)c2ccccc2c1-c1ccccc1)n1nc2ncnc(N)c2c1-c1cc(O)cc(F)c1 (stereo not shown) [Example 118, 3-(1-(4-amino-3-(3-fluoro-5-hydroxyphenyl)-2H-pyrazolo[3,4-d]pyrimidin-2-yl)ethyl)-4-phenyl-1H-isochromen-1-one] | 10 to 1000 | > 1000 | 10 to 1000 | > 1000 |

Continued, values first:

| IC50 (PI3Kα) [nM] | IC50 (PI3Kβ) [nM] | IC50 (PI3Kδ) [nM] | IC50 (PI3Kγ) [nM] | Compound |
| --- | --- | --- | --- | --- |
| 10 to 1000 | 10 to 1000 | < 10 | 10 to 1000 | CC(c1oc(=O)c2ccccc2c1-c1ccccn1)n1nc(-c2cc(O)cc(F)c2)c2c(N)ncnc21 (stereo not shown) [Example 170, 3-(1-(4-amino-3-(3-fluoro-5-hydroxyphenyl)-1H-pyrazolo[3,4-d]pyrimidin-1-yl)ethyl)-4-(pyridin-2-yl)-1H-isochromen-1-one hydrochloride] |
| 10 to 1000 | 10 to 1000 | < 10 | 10 to 1000 | CC(c1oc(=O)c2ccccc2c1C1=CCN(C(=O)CN(C)C)CC1)n1nc(-c2cc(O)cc(F)c2)c2c(N)ncnc21 (stereo not shown) [Example 147, 3-(1-(4-amino-3-(3-fluoro-5-hydroxyphenyl)-1H-pyrazolo[3,4-d]pyrimidin-1-yl)ethyl)-4-(1-(2-(dimethylamino)acetyl)-1,2,3,6-tetrahydropyridin-4-yl)-1H-isochromen-1-one formate] |
| > 1000 | > 1000 | < 10 | > 1000 | CC(c1oc(=O)c2ccccc2c1-c1cccc(CN2CCN(C)CC2)c1)n1nc(-c2cc(O)cc(F)c2)c2c(N)ncnc21 (stereo not shown) [Example 142, 3-(1-(4-amino-3-(3-fluoro-5-hydroxyphenyl)-1H-pyrazolo[3,4-d]pyrimidin-1-yl)ethyl)-4-(3-((4-methylpiperazin-1-yl)methyl)phenyl)-1H-isochromen-1-one] |
| > 1000 | > 1000 | < 10 | > 1000 | CC(c1oc(=O)c2ccccc2c1-c1ccccc1)n1nc(-c2cnc(C(F)(F)F)c(O)c2)c2c(N)ncnc21 (stereo not shown) [Example 161, 3-(1-(4-amino-3-(5-hydroxy-6-(trifluoromethyl)pyridin-3-yl)-1H-pyrazolo[3,4-d]pyrimidin-1-yl)ethyl)-4-phenyl-1H-isochromen-1-one] |
| > 1000 | > 1000 | < 10 | > 1000 | CC(c1oc(=O)c2ccccc2c1-c1ccc(CN2CCN(C)CC2)cc1)n1nc(-c2cc(O)cc(F)c2)c2c(N)ncnc21 (stereo not shown) [Example 139, 3-(1-(4-amino-3-(3-fluoro-5-hydroxyphenyl)-1H-pyrazolo[3,4-d]pyrimidin-1-yl)ethyl)-4-(4-((4-methylpiperazin-1-yl)methyl)phenyl)-1H-isochromen-1-one, dihydrochloride] |
| > 1000 | 10 to 1000 | 10 to 1000 | 10 to 1000 | Nc1ncnc2c1c(-c1cc(O)cc(F)c1)nn2CC1=C(c2ccccc2)c2ccccc2CO1 [Example 128, 3-(4-amino-1-((4-phenyl-1H-isochromen-3-yl)methyl)-1H-pyrazolo[3,4-d]pyrimidin-3-yl)-5-fluorophenol] |
| > 1000 | 10 to 1000 | < 10 | > 1000 | CC(c1oc(=O)c2ccccc2c1-c1ccc(CCCN(C)C)s1)n1nc(-c2cc(O)cc(F)c2)c2c(N)ncnc21 (stereo not shown) [Example 136, 3-(1-(4-amino-3-(3-fluoro-5-hydroxyphenyl)-1H-pyrazolo[3,4-d]pyrimidin-1-yl)ethyl)-4-(5-(3-(dimethylamino)propyl)thiophen-2-yl)-1H-isochromen-1-one, Formate] |
| > 1000 | 10 to 1000 | < 10 | 10 to 1000 | CC(c1oc(=O)c2ccccc2c1C1=CCN(C2CN(CC3CC3)C2)CC1)n1nc(-c2cc(O)cc(F)c2)c2c(N)ncnc21 (stereo not shown) [Example 157, 3-(1-(4-amino-3-(3-fluoro-5-hydroxyphenyl)-1H-pyrazolo[3,4-d]pyrimidin-1-yl)ethyl)-4-(1-(1-(cyclopropylmethyl)azetidin-3-yl)-1,2,3,6-tetrahydropyridin-4-yl)-1H-isochromen-1-one dihydrochloride] |
| 10 to 1000 | 10 to 1000 | < 10 | 10 to 1000 | CC(c1oc(=O)c2ccccc2c1-c1cncs1)n1nc(-c2cc(O)cc(F)c2)c2c(N)ncnc21 (single isomer, unassigned) [Example 167a, 3-(1-(4-amino-3-(3-fluoro-5-hydroxyphenyl)-1H-pyrazolo[3,4-d]pyrimidin-1-yl)ethyl)-4-(thiazol-5-yl)-1H-isochromen-1-one single enantiomer] |
| 10 to 1000 | 10 to 1000 | < 10 | 10 to 1000 | CC(c1oc(=O)c2ccccc2c1C1=CCNCC1)n1nc(-c2cc(O)cc(Cl)c2)c2c(N)ncnc21 (stereo not shown) [Example 152, 3-(1-(4-amino-3-(3-chloro-5-hydroxyphenyl)-1H-pyrazolo[3,4-d]pyrimidin-1-yl)ethyl)-4-(1,2,3,6-tetrahydropyridin-4-yl)-1H-isochromen-1-one formate] |
| 10 to 1000 | 10 to 1000 | 10 to 1000 | > 1000 | Nc1ncnc2c1c(-c1cncc(O)c1)nn2CC1=C(c2ccccc2)c2ccccc2CO1 [Example 129, 5-(4-amino-1-((4-phenyl-1H-isochromen-3-yl)methyl)-1H-pyrazolo[3,4-d]pyrimidin-3-yl)pyridin-3-ol] |
